Experimental data as given in ChEMBL document CHEMBL1124699, “3-Hydroxy-3-methylglutaryl-coenzyme A reductase inhibitors. 6. Trans-6-[2-(substituted-1-naphthyl)ethyl(or ethenyl)]-3,4,5,6-tetrahydro-4-hydroxy-2H-pyran-2-ones” (J Med Chem, 1990).

Assays:
[1] = target: T1, 3-hydroxy-3-methylglutaryl-coenzyme A reductase (Rattus norvegicus) (UniProt P51639); assay: Potency against HMG-CoA reductase relative to Compactin
T1 sequence (whole entry): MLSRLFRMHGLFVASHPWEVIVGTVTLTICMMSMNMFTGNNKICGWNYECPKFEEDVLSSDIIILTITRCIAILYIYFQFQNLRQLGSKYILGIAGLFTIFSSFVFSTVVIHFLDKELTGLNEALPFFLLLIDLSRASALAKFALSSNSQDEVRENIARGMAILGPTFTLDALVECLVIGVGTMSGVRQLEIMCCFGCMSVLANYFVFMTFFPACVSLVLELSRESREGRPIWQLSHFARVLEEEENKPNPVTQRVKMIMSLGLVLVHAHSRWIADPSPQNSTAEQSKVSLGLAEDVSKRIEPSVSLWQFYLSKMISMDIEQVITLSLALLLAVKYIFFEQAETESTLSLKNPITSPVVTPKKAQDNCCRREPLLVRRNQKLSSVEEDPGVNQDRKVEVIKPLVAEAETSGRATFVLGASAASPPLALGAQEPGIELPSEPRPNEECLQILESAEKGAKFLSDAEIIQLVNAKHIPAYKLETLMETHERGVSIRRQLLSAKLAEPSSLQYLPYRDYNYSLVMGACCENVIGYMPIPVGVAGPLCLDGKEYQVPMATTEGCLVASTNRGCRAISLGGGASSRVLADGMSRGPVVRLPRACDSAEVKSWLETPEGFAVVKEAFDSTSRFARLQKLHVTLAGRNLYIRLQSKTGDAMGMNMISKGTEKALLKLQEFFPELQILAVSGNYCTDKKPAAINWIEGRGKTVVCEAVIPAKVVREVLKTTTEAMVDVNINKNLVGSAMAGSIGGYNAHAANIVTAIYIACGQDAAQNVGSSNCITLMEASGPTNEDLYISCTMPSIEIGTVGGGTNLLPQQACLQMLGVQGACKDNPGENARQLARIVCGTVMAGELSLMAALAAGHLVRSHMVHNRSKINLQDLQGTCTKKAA

[2] = target: T2, 3-hydroxy-3-methylglutaryl-coenzyme A reductase (Rattus norvegicus, UniProt P51639); assay: Inhibitory activity against HMG-CoA reductase
T2 sequence (P51639 whole entry): T1 sequence (whole entry)

Compound	Relative potency [1]	IC50 [2] [nM]
Cc1cc(Cl)c2ccc(Cl)cc2c1CCC1C[C@@H](O)CC(=O)O1 (some centres undefined)	30	60
O=C1C[C@H](O)C[C@@H](/C=C/c2cccc3cccc(Br)c23)O1	0.72	4120
O=C1C[C@H](O)C[C@@H](/C=C/c2ccc(Br)c3ccccc23)O1	0.96	4000
O=C1C[C@H](O)CC(CCc2ccc(Br)c3ccccc23)O1 (some centres undefined)	0.15	23300
Cc1cc(C)c2ccc(Cl)cc2c1CCC1C[C@@H](O)CC(=O)O1 (some centres undefined)	7	200
Cc1ccc2c(C)cc(C)c(CCC3C[C@@H](O)CC(=O)O3)c2c1 (some centres undefined)	5	360
O=C1C[C@H](O)CC(CCc2cccc3ccccc23)O1 (some centres undefined)	0.043	81000
O=C1C[C@H](O)CC(CCc2c(Cl)cc(Cl)c3ccc(Cl)cc23)O1 (some centres undefined)	47	32
O=C1C[C@H](O)CC(CCc2ccc(Cl)c3cc(Cl)ccc23)O1 (some centres undefined)	0.3	7000
O=C1C[C@H](O)CC(CCc2c(Cl)cc(Cl)c3cc(Cl)ccc23)O1 (some centres undefined)	46	33
O=C1C[C@H](O)C[C@@H](/C=C/c2c(Cl)ccc3ccccc23)O1	2.3	1510
Cc1cc(Cl)c(CCC2C[C@@H](O)CC(=O)O2)c2cc(Cl)ccc12 (some centres undefined)	15	130
